Literature values as cited in patent US8030014B2, “Detecting agent and therapeutic agent for highly malignant breast cancer” (priority 2005, dated 2011).

System: breast cancer
Settings: paclitaxel used in addition to adriamycin plus cyclophosphamide (AC); postoperative auxiliary chemotherapy

Structure (SMILES): CC(=O)O[C@H]1C(=O)[C@@]2(C)[C@H]([C@H](OC(=O)c3ccccc3)[C@]3(O)C[C@H](OC(=O)[C@H](O)[C@@H](NC(=O)c4ccccc4)c4ccccc4)C(C)=C1C3(C)C)[C@]1(OC(C)=O)CO[C@@H]1C[C@@H]2O [paclitaxel]
- lowering of annual mortality rate over AC therapy alone: 26%
